# Results taken from patent publication US20230355617A1, “SMALL MOLECULE INHIBITORS OF LEMUR TYROSINE KINASE 3” (The University of Sussex, priority 2020, published 2023).
# Where two headings read alike, the source gives them in different places. Where a SMILES comes first, the peptide text is derived from it. The star is where a group is joined. Cbz = O=C(OCc1ccccc1)*
# Assays:
# FDCP1-parental = assay: FDCP1 cell-based model, parental cells; design: species or system murine
# LMTK3 [1] = molecular target: T1, LMTK3 (Homo sapiens, UniProt Q96Q04); assay: 32P γ-ATP in vitro kinase assay, phosphorylation of HSP27 by LMTK3; assay type: biochemical; details: in vitro kinase assay; read-out: Approximate IC50
# T1 construct: The wt kinase domain of LMTK3 (aa 134 to aa 444) was cloned into pOPINEneo; made in house; host or cells: Spodoptera frugiperda Sf9 (baculovirus)
# T1 sequence (Q96Q04 105-415): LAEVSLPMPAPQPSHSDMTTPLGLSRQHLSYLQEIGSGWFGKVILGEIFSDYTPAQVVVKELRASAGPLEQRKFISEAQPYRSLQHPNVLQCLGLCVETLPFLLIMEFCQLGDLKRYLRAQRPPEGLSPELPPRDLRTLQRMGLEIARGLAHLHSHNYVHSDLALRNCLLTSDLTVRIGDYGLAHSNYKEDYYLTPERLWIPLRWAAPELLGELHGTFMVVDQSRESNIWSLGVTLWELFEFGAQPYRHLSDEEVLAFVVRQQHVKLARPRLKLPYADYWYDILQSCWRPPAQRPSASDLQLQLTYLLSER
# LMTK3 [2] = molecular target: T2, LMTK3 (Homo sapiens, UniProt Q96Q04); assay: Western blotting of LMTK3 protein in BC cell lines; assay type: cell-based
# T2 construct: endogenous in cells; host or cells: MCF7, T47D, MDA-MB-231
# T2 sequence (Q96Q04 21-1460): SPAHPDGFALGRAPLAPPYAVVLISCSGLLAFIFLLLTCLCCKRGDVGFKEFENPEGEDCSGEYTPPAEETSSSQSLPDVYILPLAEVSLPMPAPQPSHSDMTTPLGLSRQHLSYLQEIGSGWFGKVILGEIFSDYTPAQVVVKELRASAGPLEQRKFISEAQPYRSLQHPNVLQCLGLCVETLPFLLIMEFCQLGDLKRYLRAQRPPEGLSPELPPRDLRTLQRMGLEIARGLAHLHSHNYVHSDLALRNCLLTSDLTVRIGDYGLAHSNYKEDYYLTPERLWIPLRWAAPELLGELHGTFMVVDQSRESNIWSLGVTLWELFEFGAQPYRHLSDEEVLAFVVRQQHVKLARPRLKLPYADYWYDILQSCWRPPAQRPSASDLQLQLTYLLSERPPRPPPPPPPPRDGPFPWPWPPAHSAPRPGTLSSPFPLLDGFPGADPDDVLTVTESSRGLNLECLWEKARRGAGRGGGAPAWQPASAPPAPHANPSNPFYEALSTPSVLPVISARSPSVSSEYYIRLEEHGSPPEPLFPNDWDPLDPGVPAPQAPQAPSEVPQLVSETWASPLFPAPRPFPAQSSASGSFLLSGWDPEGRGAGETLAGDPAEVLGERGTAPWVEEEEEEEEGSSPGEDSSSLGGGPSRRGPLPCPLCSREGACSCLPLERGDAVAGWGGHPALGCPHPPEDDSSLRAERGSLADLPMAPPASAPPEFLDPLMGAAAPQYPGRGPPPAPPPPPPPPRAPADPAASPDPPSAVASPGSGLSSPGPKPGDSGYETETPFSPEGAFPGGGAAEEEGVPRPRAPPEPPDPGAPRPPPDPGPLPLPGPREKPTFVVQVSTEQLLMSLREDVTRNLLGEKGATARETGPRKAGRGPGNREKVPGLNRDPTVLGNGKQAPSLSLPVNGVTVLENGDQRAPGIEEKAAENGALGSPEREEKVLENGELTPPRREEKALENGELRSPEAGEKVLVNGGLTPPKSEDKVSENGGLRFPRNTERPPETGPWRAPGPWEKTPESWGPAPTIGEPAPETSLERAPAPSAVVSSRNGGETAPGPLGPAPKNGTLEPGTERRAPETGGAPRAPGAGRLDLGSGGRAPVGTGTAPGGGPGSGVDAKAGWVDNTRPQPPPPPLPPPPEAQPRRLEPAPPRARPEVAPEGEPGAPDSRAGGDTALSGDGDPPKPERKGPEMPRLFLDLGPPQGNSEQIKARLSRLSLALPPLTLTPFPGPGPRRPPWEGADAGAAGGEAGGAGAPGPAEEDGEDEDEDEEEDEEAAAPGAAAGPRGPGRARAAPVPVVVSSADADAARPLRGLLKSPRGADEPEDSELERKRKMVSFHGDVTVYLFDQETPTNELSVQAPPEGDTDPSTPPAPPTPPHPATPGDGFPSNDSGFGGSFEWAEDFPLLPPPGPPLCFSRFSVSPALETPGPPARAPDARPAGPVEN
# ERα = assay: Western blotting of ERα protein in BC cell lines; assay type: cell-based, human; details: MCF7, T47D, MDA-MB-231
# [3] = Pharmacokinetics after single IV, IP or PO dose; assay type: in vivo, mice
structure (smiles),measurement,setting,value
Cc1ccc(-c2ccc3ncc(-c4cccc(OC(F)(F)F)c4)n3n2)cc1,IC50,"FDCP1-parental; Mus musculus, FDC-P1; read-out: FDCP1-parental IC50",> 10 µM
FC(F)(F)Oc1cccc(-c2cnc3ccc(Cl)nn23)c1,IC50,"FDCP1-parental; Mus musculus, FDC-P1, read-out: FDCP1-parental IC50",> 10 µM
FC(F)(F)Oc1cccc(-c2cnc3ccc(-c4ccccn4)nn23)c1 [Compound 337-1],IC50,LMTK3 [1],0.4 µM
"FC(F)(F)Oc1cccc(-c2cnc3ccc(-c4ccncc4)nn23)c1 [Compound C28, 6-(Pyridin-4-yl)-3-(3-(trifluoromethoxy)phenyl)imidazo[1,2-b]pyridazine]",inhibition of LMTK3 protein levels in cancer cell lines,"LMTK3 [2]; MCF7, T47D, MDA-MB-231",best inhibitor
same,LMTK3 protein levels,"LMTK3 [2]; MCF7, T47D, MDA-MB-231, increasing concentrations, different time points",time and dose-dependent degradation of LMTK3
same,LMTK3 ubiquitination,"LMTK3 [2]; MCF7, 10 μM, 24 h",increased LMTK3 ubiquitination
same,ERα protein levels,ERα,decreased protein levels of ERα
same,Cmax,[3]; IP 10 mg/kg,839 ng/mL
same,T1/2,[3]; IP 10 mg/kg,~59 min
same,Cmax,[3]; IV 1 mg/kg,185 ng/mL
same,T1/2,[3]; IV 5 mg/kg,~10 min
same,lethality of IV dose,[3]; IV 5 mg/kg,lethal for some mice
same,Cmax,"[3]; IV 5 mg/kg, plasma",1533 ng/mL
same,time of peak concentration,"[3]; IV 5 mg/kg, plasma",5 min
same,Cmax,[3]; PO,632 ng/mL
same,T1/2,[3]; PO,~62 min
same,peroral bioavailability (F),[3]; based on incomplete data from 5 mg/kg IV group,54%
"CC(C)C[C@@H](C=O)NC(=O)[C@H](CC(C)C)NC(=O)[C@H](CC(C)C)NC(=O)OCc1ccccc1 [MG132, reference compound] (Cbz-Leu-Leu-Leu-aldehyde)",effect on C28-induced downregulation of LMTK3,"LMTK3 [2]; 10 μM MG132 4 h, then 10 μM C28 24 h",able to prevent C28-induced downregulation of LMTK3
